Test results from ChEMBL document CHEMBL4359920 (Eur J Med Chem, 2019).

Assays:
[1] = molecular target: T1, Protein deacetylase HDAC6 (Homo sapiens, UniProt Q9UBN7); experiment: Inhibition of recombinant human HDAC6 using Ac-peptide-AMC as substrate preincubated for 15 mins followed by substrate addition and measured after 60 mins by fluorescence based assay; settings: for inhibition (INH): human, 1 h
T1 sequence (Q9UBN7 whole entry): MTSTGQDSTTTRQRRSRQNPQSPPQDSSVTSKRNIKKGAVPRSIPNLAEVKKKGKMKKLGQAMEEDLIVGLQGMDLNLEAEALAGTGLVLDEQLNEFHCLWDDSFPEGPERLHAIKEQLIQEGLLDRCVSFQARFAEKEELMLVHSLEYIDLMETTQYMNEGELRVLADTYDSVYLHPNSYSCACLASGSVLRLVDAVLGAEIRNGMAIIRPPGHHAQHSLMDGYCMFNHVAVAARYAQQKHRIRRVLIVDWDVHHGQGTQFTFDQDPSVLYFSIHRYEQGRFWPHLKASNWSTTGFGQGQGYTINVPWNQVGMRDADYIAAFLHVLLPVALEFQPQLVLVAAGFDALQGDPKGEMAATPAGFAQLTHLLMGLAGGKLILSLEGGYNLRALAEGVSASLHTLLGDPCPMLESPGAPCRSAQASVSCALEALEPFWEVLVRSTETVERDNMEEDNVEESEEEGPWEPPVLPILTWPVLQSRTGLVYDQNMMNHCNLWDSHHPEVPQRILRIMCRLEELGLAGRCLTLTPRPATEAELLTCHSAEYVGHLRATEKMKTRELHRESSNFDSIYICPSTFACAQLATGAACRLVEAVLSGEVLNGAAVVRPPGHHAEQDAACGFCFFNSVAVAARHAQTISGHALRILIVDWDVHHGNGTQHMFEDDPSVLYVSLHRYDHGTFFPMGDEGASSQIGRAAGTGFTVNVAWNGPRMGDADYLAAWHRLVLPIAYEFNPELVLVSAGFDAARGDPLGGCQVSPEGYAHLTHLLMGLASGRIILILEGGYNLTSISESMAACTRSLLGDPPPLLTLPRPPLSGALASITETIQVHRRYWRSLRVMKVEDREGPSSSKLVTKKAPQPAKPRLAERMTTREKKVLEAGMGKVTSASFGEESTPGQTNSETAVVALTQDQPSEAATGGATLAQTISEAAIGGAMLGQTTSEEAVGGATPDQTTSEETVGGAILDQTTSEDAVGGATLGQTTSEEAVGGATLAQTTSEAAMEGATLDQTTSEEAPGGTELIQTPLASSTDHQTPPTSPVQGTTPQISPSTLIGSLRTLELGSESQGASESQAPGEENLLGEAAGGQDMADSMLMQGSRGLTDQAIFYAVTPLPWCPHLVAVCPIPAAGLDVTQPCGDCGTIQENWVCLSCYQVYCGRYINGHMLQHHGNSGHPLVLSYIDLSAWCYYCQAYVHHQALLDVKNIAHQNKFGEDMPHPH

A549 = experiment: Antiproliferative activity against human A549 cells assessed as reduction in cell viability after 72 hrs by MTT assay; assay type: functional, cell-based; settings: A549, 72 h
HCT-116 = experiment: Antiproliferative activity against human HCT116 cells assessed as reduction in cell viability after 72 hrs by MTT assay; assay type: functional, cell-based; settings: HCT-116, 72 h
MDA-MB-231 = experiment: Antiproliferative activity against human MDA-MB-231 cells assessed as reduction in cell viability after 72 hrs by MTT assay; assay type: functional, cell-based; settings: MDA-MB-231, 72 h
SK-OV-3 = experiment: Antiproliferative activity against human SKOV3 cells assessed as reduction in cell viability after 72 hrs by MTT assay; assay type: functional, cell-based; settings: SK-OV-3, 72 h
[2] = molecular target: Histone deacetylase (Homo sapiens) (UniProt Q13547+O15379+Q9UBN7+Q92769+Q9UQL6+Q8WUI4+Q9BY41+Q96DB2+P56524+Q9UKV0+Q969S8); experiment: Inhibition of HDAC in human HCT116 cells assessed as increase in histone H3 acetylation after 24 hrs by Western blot analysis; assay type: cell-based
[3] = molecular target: T1, Protein deacetylase HDAC6; experiment: Inhibition of HDAC6 in human HCT116 cells assessed as alpha tubulin acetylation at 0.1 to 10000 nM after 24 hrs by Western blot analysis; assay type: cell-based; settings: 10 µM
Histone deacetylase 1 = Histone deacetylase 1 (Homo sapiens, UniProt Q13547); experiment: (§1) Inhibition of recombinant full length C-terminal FLAG/His-tagged human HDAC1 expressed in baculovirus infected Sf9 cells using Ac-peptide-AMC as substrate preincubated for 15 mins followed by substrate addition and measured after 60 mins by fluorescence based assay
Histone deacetylase 2 = Histone deacetylase 2 (Homo sapiens, UniProt Q92769); experiment: biochemical; assay type: cell-based, Sf9
Description: Inhibition of recombinant full length human HDAC2 expressed in baculovirus infected Sf9 cells using Ac-peptide-AMC as substrate preincubated for 15 mins followed by substrate addition and measured after 60 mins by fluorescence based assay

[4] = molecular target: Histone deacetylase 3/Nuclear receptor corepressor 2 (HDAC3/NCoR2) (Homo sapiens, UniProt O15379); experiment: as §1, with “of human” for “of”, “His-tagged HDAC3 (1 to 428 residues)/N-terminal GST-tagged NCOR2 (395 to 489 residues)” for “FLAG/His-tagged human HDAC1”
Histone deacetylase 8 = molecular target: T2, Histone deacetylase 8 (Homo sapiens, UniProt Q9BY41); experiment: Inhibition of full length C-terminal His-tagged human HDAC8 expressed in baculovirus infected Sf9 cells using Ac-peptide-AMC as substrate preincubated for 15 mins followed by substrate addition and measured after 240 mins by fluorescence based assay
T2 sequence (Q9BY41 whole entry): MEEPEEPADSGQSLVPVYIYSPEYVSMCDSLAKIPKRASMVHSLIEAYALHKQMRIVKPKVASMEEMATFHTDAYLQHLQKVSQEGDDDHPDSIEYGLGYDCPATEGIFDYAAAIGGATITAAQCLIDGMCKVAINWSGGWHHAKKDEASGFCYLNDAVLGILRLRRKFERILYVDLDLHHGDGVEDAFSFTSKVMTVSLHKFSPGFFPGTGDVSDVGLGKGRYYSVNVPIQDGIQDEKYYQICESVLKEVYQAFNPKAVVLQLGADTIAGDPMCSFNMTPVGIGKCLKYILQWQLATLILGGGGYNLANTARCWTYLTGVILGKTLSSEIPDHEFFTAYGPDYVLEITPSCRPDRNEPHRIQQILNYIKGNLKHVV

Homo sapiens [5] = organism: Homo sapiens; experiment: Selectivity ratio of IC50 for inhibition of recombinant full length human HDAC2 expressed in baculovirus infected Sf9 cells to IC50 for inhibition of recombinant full length C-terminal FLAG/His-tagged human HDAC1 expressed in baculovirus infected Sf9 cells
Homo sapiens [6] = organism: Homo sapiens; experiment: Selectivity ratio of IC50 for inhibition of human recombinant full length C-terminal His-tagged HDAC3 (1 to 428 residues)/N-terminal GST-tagged NCOR2 (395 to 489 residues) expressed in baculovirus infected Sf9 cells to IC50 for inhibition recombinant full length C-terminal FLAG/His-tagged human HDAC1 expressed in baculovirus infected Sf9 cells

Chain of Histone deacetylase 1 (Q13547 whole entry): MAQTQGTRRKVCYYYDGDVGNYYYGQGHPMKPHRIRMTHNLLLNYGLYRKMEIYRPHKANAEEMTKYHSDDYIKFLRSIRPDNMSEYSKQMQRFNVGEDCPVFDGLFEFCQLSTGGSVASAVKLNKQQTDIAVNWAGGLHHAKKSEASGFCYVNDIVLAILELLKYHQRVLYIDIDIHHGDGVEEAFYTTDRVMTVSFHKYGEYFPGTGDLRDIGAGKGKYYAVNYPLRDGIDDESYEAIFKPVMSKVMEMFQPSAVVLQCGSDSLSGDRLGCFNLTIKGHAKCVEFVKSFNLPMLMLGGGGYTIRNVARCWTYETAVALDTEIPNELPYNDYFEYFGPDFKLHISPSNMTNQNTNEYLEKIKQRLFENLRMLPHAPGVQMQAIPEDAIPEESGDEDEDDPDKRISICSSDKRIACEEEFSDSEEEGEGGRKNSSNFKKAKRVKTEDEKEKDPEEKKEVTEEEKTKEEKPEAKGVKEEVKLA
Chain of Histone deacetylase 3/Nuclear receptor corepressor 2 (HDAC3/NCoR2) (O15379 whole entry, the tested form may be a part): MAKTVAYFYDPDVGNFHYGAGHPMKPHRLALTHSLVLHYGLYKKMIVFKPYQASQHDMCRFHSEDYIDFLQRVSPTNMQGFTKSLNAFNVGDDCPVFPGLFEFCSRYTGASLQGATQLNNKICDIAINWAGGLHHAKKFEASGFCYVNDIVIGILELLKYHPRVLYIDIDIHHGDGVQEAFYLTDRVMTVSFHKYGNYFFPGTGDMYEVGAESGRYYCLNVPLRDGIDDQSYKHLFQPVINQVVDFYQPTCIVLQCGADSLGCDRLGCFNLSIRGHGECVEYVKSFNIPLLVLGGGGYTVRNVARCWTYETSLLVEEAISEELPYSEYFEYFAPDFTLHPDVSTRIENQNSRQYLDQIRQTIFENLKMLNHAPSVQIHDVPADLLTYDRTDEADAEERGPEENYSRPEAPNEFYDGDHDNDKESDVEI
Chain of Histone deacetylase 3/Nuclear receptor corepressor 2 (HDAC3/NCoR2) (Q9Y618 whole entry, further chain, the tested form may be a part): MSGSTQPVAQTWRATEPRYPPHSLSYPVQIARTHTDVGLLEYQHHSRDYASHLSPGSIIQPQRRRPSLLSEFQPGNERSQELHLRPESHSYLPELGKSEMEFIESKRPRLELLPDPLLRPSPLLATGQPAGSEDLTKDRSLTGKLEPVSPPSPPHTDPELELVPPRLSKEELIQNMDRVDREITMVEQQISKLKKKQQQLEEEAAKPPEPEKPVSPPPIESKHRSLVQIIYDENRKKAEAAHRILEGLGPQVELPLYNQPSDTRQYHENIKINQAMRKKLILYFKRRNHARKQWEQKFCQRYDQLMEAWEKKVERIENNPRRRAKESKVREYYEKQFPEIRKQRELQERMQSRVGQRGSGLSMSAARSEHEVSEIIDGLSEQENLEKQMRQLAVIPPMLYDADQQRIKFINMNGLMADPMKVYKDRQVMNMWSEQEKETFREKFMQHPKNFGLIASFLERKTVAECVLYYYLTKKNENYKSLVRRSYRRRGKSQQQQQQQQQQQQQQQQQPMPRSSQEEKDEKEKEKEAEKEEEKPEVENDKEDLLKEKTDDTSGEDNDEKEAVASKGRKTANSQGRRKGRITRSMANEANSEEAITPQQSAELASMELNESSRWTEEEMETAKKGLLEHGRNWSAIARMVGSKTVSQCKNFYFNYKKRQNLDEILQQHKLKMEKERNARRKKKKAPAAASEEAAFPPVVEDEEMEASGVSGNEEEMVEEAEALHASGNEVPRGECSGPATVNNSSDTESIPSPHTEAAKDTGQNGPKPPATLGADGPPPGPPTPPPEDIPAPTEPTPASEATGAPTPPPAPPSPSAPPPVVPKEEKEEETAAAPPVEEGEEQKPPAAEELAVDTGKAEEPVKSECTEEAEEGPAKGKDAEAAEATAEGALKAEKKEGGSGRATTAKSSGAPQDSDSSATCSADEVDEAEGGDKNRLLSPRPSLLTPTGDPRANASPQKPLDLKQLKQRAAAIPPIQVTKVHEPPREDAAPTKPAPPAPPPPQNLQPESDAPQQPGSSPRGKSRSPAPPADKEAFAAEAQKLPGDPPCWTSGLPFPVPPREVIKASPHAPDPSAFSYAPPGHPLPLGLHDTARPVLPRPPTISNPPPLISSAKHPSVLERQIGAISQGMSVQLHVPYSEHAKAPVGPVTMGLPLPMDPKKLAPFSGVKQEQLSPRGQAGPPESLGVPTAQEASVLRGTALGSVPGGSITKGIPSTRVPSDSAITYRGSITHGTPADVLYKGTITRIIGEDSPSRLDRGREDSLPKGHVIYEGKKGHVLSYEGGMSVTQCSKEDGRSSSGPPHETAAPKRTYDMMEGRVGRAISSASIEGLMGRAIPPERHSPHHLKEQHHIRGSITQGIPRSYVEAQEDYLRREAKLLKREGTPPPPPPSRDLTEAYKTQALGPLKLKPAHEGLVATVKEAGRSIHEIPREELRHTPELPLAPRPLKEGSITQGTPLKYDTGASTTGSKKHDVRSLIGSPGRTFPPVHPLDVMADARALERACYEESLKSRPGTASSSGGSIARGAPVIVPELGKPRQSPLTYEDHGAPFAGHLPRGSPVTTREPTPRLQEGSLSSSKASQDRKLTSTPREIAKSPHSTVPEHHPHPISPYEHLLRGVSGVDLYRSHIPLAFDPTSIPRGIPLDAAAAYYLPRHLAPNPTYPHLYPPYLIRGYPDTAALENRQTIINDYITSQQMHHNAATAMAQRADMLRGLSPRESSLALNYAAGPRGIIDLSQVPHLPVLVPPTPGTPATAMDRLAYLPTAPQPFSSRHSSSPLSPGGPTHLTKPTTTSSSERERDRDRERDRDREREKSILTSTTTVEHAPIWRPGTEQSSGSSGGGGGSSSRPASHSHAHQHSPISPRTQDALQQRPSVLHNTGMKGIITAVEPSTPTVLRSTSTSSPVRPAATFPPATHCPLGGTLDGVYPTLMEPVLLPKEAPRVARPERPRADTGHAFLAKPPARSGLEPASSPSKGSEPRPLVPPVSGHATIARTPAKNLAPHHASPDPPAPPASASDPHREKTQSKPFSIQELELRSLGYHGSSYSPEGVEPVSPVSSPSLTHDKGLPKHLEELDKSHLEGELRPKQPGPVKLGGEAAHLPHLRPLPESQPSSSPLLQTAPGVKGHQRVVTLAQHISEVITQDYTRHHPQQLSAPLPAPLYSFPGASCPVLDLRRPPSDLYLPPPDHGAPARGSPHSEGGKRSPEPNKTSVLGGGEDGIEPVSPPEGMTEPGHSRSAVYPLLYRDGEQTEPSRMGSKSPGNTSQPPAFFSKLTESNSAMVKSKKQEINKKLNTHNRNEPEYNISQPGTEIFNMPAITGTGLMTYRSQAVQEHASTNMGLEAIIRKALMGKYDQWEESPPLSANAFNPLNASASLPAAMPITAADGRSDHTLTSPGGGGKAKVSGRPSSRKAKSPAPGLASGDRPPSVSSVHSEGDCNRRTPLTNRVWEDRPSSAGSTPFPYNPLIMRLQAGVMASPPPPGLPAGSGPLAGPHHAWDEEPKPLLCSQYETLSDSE
Chain of Histone deacetylase 2 (Q92769 whole entry, the tested form may be a part): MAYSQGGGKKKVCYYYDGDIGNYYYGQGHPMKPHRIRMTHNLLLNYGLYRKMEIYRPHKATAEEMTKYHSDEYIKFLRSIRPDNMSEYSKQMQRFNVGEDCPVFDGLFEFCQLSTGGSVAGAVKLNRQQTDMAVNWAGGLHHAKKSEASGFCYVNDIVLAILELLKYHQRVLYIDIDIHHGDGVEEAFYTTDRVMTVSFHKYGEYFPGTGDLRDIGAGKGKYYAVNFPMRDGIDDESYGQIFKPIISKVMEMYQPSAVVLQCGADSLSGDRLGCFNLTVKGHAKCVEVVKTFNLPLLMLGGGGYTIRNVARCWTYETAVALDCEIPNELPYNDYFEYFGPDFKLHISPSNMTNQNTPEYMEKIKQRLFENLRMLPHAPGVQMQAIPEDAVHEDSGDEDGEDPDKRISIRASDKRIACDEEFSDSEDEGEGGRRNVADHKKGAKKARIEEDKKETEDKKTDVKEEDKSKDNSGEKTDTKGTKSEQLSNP

SMILES	inhibition (INH) [1]	IC50 (A549) [nM]	IC50 (HCT-116) [nM]	IC50 (MDA-MB-231) [nM]	IC50 (SK-OV-3) [nM]	IC50 (Histone deacetylase 1) [nM]	IC50 (Histone deacetylase 2) [nM]	IC50 [4] [nM]	IC50 [1] [nM]	IC50 (Histone deacetylase 8) [nM]	also measured
O=C(CCCCCCC(=O)Nc1ccccc1)NO [VORINOSTAT]	Dose-dependent effect										
CCCCCCCC(=O)SCC/C=C/[C@@H]1CC(=O)NCc2nc(cs2)C2=N[C@@](C)(CS2)C(=O)N[C@@H](C(C)C)C(=O)O1 [LARGAZOLE]	Dose-dependent effect	460	44 to 110	4750	250						
CCCCCCCC(=O)SCC/C=C(\F)[C@H]1CC(=O)NCc2nc(cs2)C2=N[C@@](C)(CS2)C(=O)N[C@@H](C(C)C)C(=O)O1		> 10000	> 10000	> 10000	> 10000						
CC(C)[C@@H]1NC(=O)[C@]2(C)CSC(=N2)c2csc(n2)CNC(=O)C[C@@H](/C=C/CCS)OC1=O	Dose-dependent effect										
CCCCCCCC(=O)SCC/C=C/[C@H]1NC(=O)[C@H](C(C)C)NC(=O)[C@]2(C)CSC(=N2)c2csc(n2)CNC(=O)C1(F)F		> 10000	> 10000	> 10000	> 10000						
CCCCCCCC(=O)SCC/C=C(\F)[C@@H]1CC(=O)NCc2nc(cs2)C2=N[C@@](C)(CS2)C(=O)N[C@@H](C(C)C)C(=O)O1	Dose-dependent effect	520	810	3850	240			2300	> 5000		

Now from value to molecule, other results behind:

inhibition (INH) [1]	IC50 (A549) [nM]	IC50 (HCT-116) [nM]	IC50 (MDA-MB-231) [nM]	IC50 (SK-OV-3) [nM]	IC50 (Histone deacetylase 1) [nM]	IC50 (Histone deacetylase 2) [nM]	IC50 [4] [nM]	IC50 [1] [nM]	IC50 (Histone deacetylase 8) [nM]	SMILES	also measured
	> 10000	> 10000	> 10000	> 10000						CCCCCCCC(=O)SCC(F)(F)/C=C/[C@@H]1CC(=O)NCc2nc(cs2)C2=N[C@@](C)(CS2)C(=O)N[C@@H](C(C)C)C(=O)O1	
Dose-dependent effect										CC(C)[C@@H]1NC(=O)[C@]2(C)CSC(=N2)c2csc(n2)CNC(=O)C[C@@H](/C(F)=C/CCS)OC1=O	
	170	170	4110	260						CCCCCCCC(=O)SCC/C(F)=C/[C@@H]1CC(=O)NCc2nc(cs2)C2=N[C@@](C)(CS2)C(=O)N[C@@H](C(C)C)C(=O)O1	inhibition [2]: Dose-dependent effect; inhibition (INH) [3]: Not Active
Dose-dependent effect					6.31	9.25	7.43	1410	166	CC(C)[C@@H]1NC(=O)[C@]2(C)CSC(=N2)c2csc(n2)CNC(=O)C(F)(F)[C@@H](/C=C/CCS)NC1=O	
Dose-dependent effect					2.9	7.42	8.53	333	27.1	CC(C)[C@@H]1NC(=O)[C@]2(C)CSC(=N2)c2csc(n2)CNC(=O)C[C@@H](/C(F)=C/CCS)NC1=O	
Dose-dependent effect					11.9	18.5	8.21	898	44.1	CC(C)[C@@H]1NC(=O)[C@]2(C)CSC(=N2)c2csc(n2)CNC(=O)C[C@@H](/C=C/C(F)(F)CS)OC1=O	Ratio IC50 (Homo sapiens [5]): 79; Ratio IC50 (Homo sapiens [6]): 79
Dose-dependent effect					78.5	95.5	51.4	1830	378	CC(C)[C@@H]1NC(=O)[C@]2(C)CSC(=N2)c2csc(n2)CNC(=O)C[C@H](/C(F)=C/CCS)OC1=O	
	> 10000	6620	> 10000	> 10000						CCCCCCCC(=O)SCC/C=C(\F)[C@@H]1CC(=O)NCc2nc(cs2)C2=N[C@@](C)(CS2)C(=O)N[C@@H](C(C)C)C(=O)N1	
Dose-dependent effect					0.46	2.46	3.2	19.7	0.41	CC(C)[C@@H]1NC(=O)[C@]2(C)CSC(=N2)c2csc(n2)CNC(=O)C[C@@H](/C=C(\F)CCS)OC1=O	
